Data as given in patent US20260041653A1, “AN HDAC INHIBITOR FOR TREATING CANCER WITH A MODIFIED STK11 ACTIVITY OR EXPRESSION” (Tango Therapeutics, Inc., priority 2022, published 2026).

Legend:
STK11-null 3LL tumor = experiment: Anti-tumor efficacy in PD-1 resistant STK11-null 3LL model; type: in vivo; conditions: Compound I 75 mg/kg, Anti-PD1 10 mg/kg
Method: An in vivo anti-tumor efficacy of double combination treatment of Anti-PD1 and Compound I in a PD-1 resistant STK11-null 3LL model was performed. The parental (non STK11KO) 3LL line is relatively resistant to anti-PD1 treatment.
The animals (8/group) were divided into 4 groups: Group I was treated with a control antibody Anti-IgG2, group 2 was treated with anti-PD1 antibody, group 3 was treated with Compound I 75 mg/kg, and group 4 was treated with Compound 1 75 mg/kg and anti-PD1 antibody. Tumor volume and survival was monitored over the course of treatment. The tumor volume and survival was plotted by treatment group (FIG. 17A and FIG. 17B, respectively). The combination treatment with Compound I decreased the PD-1 resistance of this model caused by the SKT11 knockout to the baseline characteristic of the parental line as shown by Group 4's decreased tumor volume and increased survival over time compared to the other groups.

HDAC6 = target: T1, HDAC6 (Homo sapiens, UniProt Q9UBN7); experiment: Cellular NanoBRET assay, HDAC6; type: cell-based
T1 construct: expressed in transfected cells
T1 sequence (Q9UBN7 whole entry): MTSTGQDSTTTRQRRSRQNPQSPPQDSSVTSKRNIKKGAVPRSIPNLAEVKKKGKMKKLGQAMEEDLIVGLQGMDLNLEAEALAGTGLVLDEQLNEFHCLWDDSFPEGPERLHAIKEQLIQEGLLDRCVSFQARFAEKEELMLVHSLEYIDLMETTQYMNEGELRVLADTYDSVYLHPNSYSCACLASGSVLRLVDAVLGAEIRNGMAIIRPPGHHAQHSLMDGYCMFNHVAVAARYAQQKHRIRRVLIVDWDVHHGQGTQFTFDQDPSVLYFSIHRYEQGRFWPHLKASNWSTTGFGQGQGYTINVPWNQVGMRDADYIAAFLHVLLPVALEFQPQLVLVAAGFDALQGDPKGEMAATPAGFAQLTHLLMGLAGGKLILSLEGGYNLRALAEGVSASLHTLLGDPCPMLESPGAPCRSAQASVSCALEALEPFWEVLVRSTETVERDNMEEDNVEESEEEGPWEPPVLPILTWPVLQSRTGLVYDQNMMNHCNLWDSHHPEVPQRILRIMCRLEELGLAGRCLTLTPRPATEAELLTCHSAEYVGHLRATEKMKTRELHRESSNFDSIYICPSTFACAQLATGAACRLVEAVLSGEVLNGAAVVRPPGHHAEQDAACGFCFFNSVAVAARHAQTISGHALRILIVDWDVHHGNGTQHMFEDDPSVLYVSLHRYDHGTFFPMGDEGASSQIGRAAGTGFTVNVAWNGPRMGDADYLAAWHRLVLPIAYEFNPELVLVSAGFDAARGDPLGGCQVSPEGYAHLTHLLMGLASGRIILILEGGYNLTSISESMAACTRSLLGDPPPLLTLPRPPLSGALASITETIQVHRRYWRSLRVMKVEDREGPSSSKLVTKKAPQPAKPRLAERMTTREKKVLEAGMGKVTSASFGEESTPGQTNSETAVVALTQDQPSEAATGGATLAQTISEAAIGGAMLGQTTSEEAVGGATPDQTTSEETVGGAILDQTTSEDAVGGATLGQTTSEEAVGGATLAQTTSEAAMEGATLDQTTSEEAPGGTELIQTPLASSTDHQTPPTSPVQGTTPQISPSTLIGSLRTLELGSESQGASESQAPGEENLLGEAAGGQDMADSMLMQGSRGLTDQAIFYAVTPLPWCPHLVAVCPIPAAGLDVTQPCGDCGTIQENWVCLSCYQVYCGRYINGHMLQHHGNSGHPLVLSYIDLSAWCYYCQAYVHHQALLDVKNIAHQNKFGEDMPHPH

[1] = tested on: cytokines and antigen presentation genes; experiment: Nanostring PanCancer IO 360 cytokine and HLA gene profiling of STK11-/- MC38; design: species or system mouse; conditions: 30 mg/kg for 7 days in vivo; 0.2 uM for 4 days in vitro
Method: The cytokine expression of tumors from mice treated with Compound I was determined by Nanostring PanCancer IO 360 analysis.
Briefly, STK11−/− MC38 tumors from mice treated for 7 days with 30 mg/kg of Compound I or anti-PD1 antibody alone or in combination were collected 8 hours post last dose. The gene expression profiles of CXCL9, CXCL10, and CXCL11 of the tumors were determined by Nanostring PanCancer IO 360 (FIG. 9A). Additionally, the gene expression profiles of Treg-recruiting chemokines CCL1 and CCL22 of the tumors were determined by Nanostring PanCancer IO 360 (FIG. 9B).
STK11-deficient MC38 cells were also profiled for HLA gene expression by Nanostring IO360 panel in vitro after 4 days of treatment with Compound I at 0.2 uM compared to DMSO solvent control (FIG. 9C).

acetyl-histone H3 = experiment: PK/PD study, acetyl-histone H3 in tumor by Western blot; type: in vivo, C57BL/6 mice
Method: (§1) In a separate PK/PD study, MC38 tumor-bearing female C57BL/6 mice (12/group) were assigned to treatment groups with similar mean tumor volumes of approximately 430 mm^3 and treated with vehicle (5% N,N-dimethylacetamide [DMA]+30% polyethylene glycol [PEG] 400+65% of 30% 2-hydroxypropyl-beta-cyclodextrin [HP-β-CD] in water) or Compound I at 30, 100, and 300 mg/kg once daily (QD) for 2 days. Plasma samples were collected at 1, 2, 8 and 24 hours after last dose and analyzed for Compound I concentrations. Peripheral blood mononuclear cells (PBMC) and tumor samples were harvested at 2, 8, and 24 hours after last dose. The PBMC samples were processed for determination of mean florescent level of acetyl-histone H2B by flow cytometry. Tumor samples were processed for determination of protein levels of acetyl-histone H3 by Western blot.

acetyl-histone H2B = experiment: PK/PD study, acetyl-histone H2B in PBMC by flow cytometry; type: in vivo, C57BL/6 mice; conditions: 300 mg/kg QD, 2 days; 24 hours after last dose; vs vehicle control
Method: as §1

C[S@@](=N)(=O)c1ccc(C(=O)Nc2cc(-c3ccc(F)cc3)ccc2N)cc1 [Compound I, (R)—N-(4-amino-4′-fluoro-[1,1′-biphenyl]-3-yl)-4-(S-methylsulfonimidoyl)benzamide] was tested, and the “Median TTE” value (STK11-null 3LL tumor) was 18 days, the IC50 (HDAC6) was greater than 30 µM and the “immune evasion; expression of cytokines and antigen presentation genes” value [1] was “reverses immune evasion on tumor cells”. The “maximal induction of histone acetylation in tumor” value (acetyl-histone H3; 300 mg/kg QD, 2 days, 24 hours after last dose, vs vehicle control) was 3.7 fold, the “tumor acetyl-histone protein levels” value (acetyl-histone H3; 30, 100, 300 mg/kg QD, starting 2 hours after last dose) was “dose-dependent increase” and the “maximal induction of histone acetylation in PBMC” value (acetyl-histone H2B) was 8 fold.
